Experimental data taken from publication PMC3471028, “A Laccase with Antiproliferative and HIV-I Reverse Transcriptase Inhibitory Activities from the Mycorrhizal Fungus Agaricus placomyces” (Journal of Biomedicine and Biotechnology, 2012).
Where a name gives a salt, the structure may show the parent alone.

Test system: T1, A. placomyces laccase
T1 construct: gene EC 1.10.3.2; native, purified from fruiting bodies; 68 kDa monomer
Assay: spectrophotometric oxidation assay, Lineweaver-Burk plot
Format: biochemical, Agaricus placomyces
Settings: 50 mM sodium acetate, pH 5.2, 30°C

Structure (SMILES) | Km [µM]
CCn1c(=NN=c2sc3cc(S(=O)(=O)O)ccc3n2CC)sc2cc(S(=O)(=O)O)ccc21 [ABTS, 2,7′-azinobis[3-ethylbenzothiazolone-6-sulfonic acid] diammonium salt] | 775
Oc1ccc(O)cc1 [hydroquinone] | 392
